Results reported in patent US20240150839A1, “METHODS FOR PREDICTING RESPONSIVENESS OF PROSTATE CANCER PATIENTS TO PARP INHIBITORS” (Memorial Sloan Kettering Cancer Center, priority 2019, published 2024).

Legend:
Assay type in all cases: cell-based, human
22RV1 cells = assay: MTT cell growth with PARPi or cisplatin; conditions: 22RV1, BRCA2 T3033Nfs*11, RB1-wt; cisplatin 500 nM, talazoparib 5 nM, 6 days (FIG. 11D)
Procedure: (§1) The ploidy of each cell line is indicated. […] Equivalent volume of DMSO was used as placebo treatment. Cell growth was measured by MTT assay (see Example 1); SD, each point indicates the MTT count of each well of 96-well plate, P-values determined by Student's t-test. **P<0.01, ****P<0.0001. […] Cell Proliferation Assay by MTT, BrdU and Crystal Violet. For MTT assay, cells were plated at 2.5×10^3 per well in 96-well plates in complete media (10% FBS) or media supplemented with 10% charcoal-stripped serum. Cells were either treated with DMSO or with indicated inhibitors. After indicated times, cells were incubated in 0.5 mg/mL MTT (Invitrogen) for 1 hour at 37° C. MTT crystals were dissolved in isopropanol and absorbance was measured in a BioTek plate reader at […] and represented graphically.

PC3M cells = assay: MTT cell growth with PARPi or cisplatin; conditions: talazoparib 5 nM, 6 days, P<0.0001 (FIG. 11D)
Procedure: as §1

LNCaP-BRCA2-RB1 cells = assay: MTT cell growth with PARP inhibitors; conditions: LNCaP-BRCA2-RB1 vs BRCA2-null LNCaP; olaparib 3 μM, talazoparib 0.005 μM (FIG. 2E)
Procedure: (§2) Scr-CRISPR and BRCA2-CRISPR2 cells were also transfected with non-targeting shRNA (scr-Sh) for control of shRNA. RHoGDI served as the loading control. […] Equivalent volume of DMSO was used as placebo treatment. Cell growth was measured by MTT assay; SD, p-values were determined by Student's t-test. […] FIG. 2C (2nd and 3rd rows) show the immunofluorescence (400× magnification) of F-actin filament stained with phalloidin in indicated CRISPR/shRNA-infected LNCaP cells. Nuclei were stained with DAPI (blue). […] 5×10^3 indicated cells were plated on the top of Boyden chamber (see Example 1) in serum-free media; 10% serum in the bottom chamber was used as chemo-attractant. After 48 hours, cells in the lower side of the chamber were fixed, stained, and photographed (100× magnification). […] Nuclei were stained with DAPI (blue). […] The graphs show cell growth measured by MTT assay (±SD); P-values determined by Student's t-test. […] RNA sequencing was analyzed by Partek.
(§3) To generate BRCA2-RB1 knockout-knockdown LNCaP cells, parental LNCaP cells were first infected with lentivirus containing BRCA2 gRNA or scr gRNA. Pooled population of the stable cells were established by puromycin selection and analyzed by western blot and qPCR. BRCA2-knockout or scr LNCaP cells were infected with lentivirus containing RB1 shRNA followed by hygromycin selection. BRCA2-knockout or scr (gRNA) LNCaP cells also infected with lentiviral non-targeting shRNA (scr-shRNA) were used as control. Cells within 4-10 passages after stable selection were used for the following experiments.
(§4) Cell Proliferation Assay by MTT, BrdU and Crystal Violet. For MTT assay, cells were plated at 2.5×10^3 per well in 96-well plates in complete media (10% FBS) or media supplemented with 10% charcoal-stripped serum. Cells were either treated with DMSO or with indicated inhibitors. After indicated times, cells were incubated in 0.5 mg/mL MTT (Invitrogen) for 1 hour at 37° C. MTT crystals were dissolved in isopropanol and absorbance was measured in a BioTek plate reader at […] and represented graphically.

[1] = tested on: RB1 knockdown LNCaP cells; assay: MTT cell growth with PARP inhibitors; conditions: RB1 knockdown vs control LNCaP cells; olaparib 3 μM, talazoparib 0.005 μM (FIG. 2E)
Procedure: as §2, §3, §4

BRCA2-null LNCaP cells = assay: MTT cell growth of BRCA2 CRISPR-edited LNCaP cells with PARP inhibitors or cisplatin; conditions: BRCA2 knockout LNCaP vs control gRNA (scr) cells; complete medium, 6 days (FIG. 7C)
Procedure: Cells infected with scrambled (scr) gRNA were used as control. Equal amount of proteins was loaded in WedgeWell 6% gel and western blot was performed. ˜400 kDa BRCA2 band is indicated by arrow. GAPDH served as loading controls for western blot and qPCR. […] Genotypes are detected by PCR amplification followed by being treated with T7 endonuclease. Wt and mutant BRCA2 are indicated by red and green arrows, respectively. […] Equivalent volume of DMSO was used as placebo treatment. Cell growth was measured by MTT assay (see Example 1); SD, P-values determined by Student's t-test. *P<0.05, **P<0.01, ***P<0.001. FIGS. 7D-7E show the growth curve (FIG. 7D) and a bar graph (FIG. 7E) representing the cell growth of LNCaP BRCA2 CRISPR-edited and non-targeting control gRNA (scr) infected cells in complete medium supplemented with enzalutamide (ENZ; indicated concentration) for 7 days or charcoal-stripped medium (CSS) for 5 days, respectively. Equivalent volume of DMSO was used as placebo treatment. Cell growth was measured by crystal violet staining assay (see Example 1) (±SD); P-values determined by Student's t-test. […] Equivalent volume of DMSO was used as placebo treatment. Cell growth was measured by MTT assay (see Example 1) (±SD); P-values determined by Student's t-test. […] Total RNA was isolated, and BRCA2 mRNA was analyzed by qPCR. […] Cell growth was measured by MTT assay; SD, P-values determined by Student's t-test.
To generate BRCA2 knockout RWPE1 cells, BRCA2 gRNA2 was cloned into LentiCRISPRv2-GFP backbone which constitutively expresses Cas9 and GFP. Lentiviral infected cells were selected by FACS sorting for GFP positive cells (twice) and analyzed by western blot. […] Loss of BRCA2 in the pooled populations of LNCaP cells was analyzed by western blot using BRCA2-specific antibodies and this pooled population of cells was used for the following experiments. […]
Cell Proliferation Assay by MTT, BrdU and Crystal Violet. […] MTT crystals were dissolved in isopropanol and absorbance was measured in a BioTek plate reader at […] and represented graphically.

MSK-PCa3 organoid = assay: MTT growth of mCRPC organoids with PARPi; conditions: compared to benign organoid; 3 days (FIG. 6E)
Excerpt: (§5) Near-diploid benign prostate organoid is used as a control. […] GAPDH served as the loading control. […] The graphs show cell growth measured by MTT assay (±SD); P-trends determined by 2-way ANOVA.
(§6) Cell Culture. Human prostate cancer cells LNCaP, 22RV1, DU145, PC3, and VCaP were obtained from ATCC (Manassas, VA). LNCaP-C42 cells were obtained from VitroMed (Burlington, NC). The LNCaP-Abl cell line, E006AA-T cells, PC3M LAPC4 cell line were obtained. These cells were maintained in 10% FBS (LNCaP, LNCaP-C42, LAPC4, VCaP, 22RV1, DU145, PC3, PC3M, and E006AA) or 10% charcoal-stripped serum (LNCaP-Abl) supplemented with 2 mM of L-glutamine and 1×antibiotic/antimycotic (Gemini Bio-Products, Sacramento, CA) at 37° C. in 5% CO2. Human prostate epithelial cell RWPE1 was obtained from ATCC and cultured in keratinocyte serum-free medium (Thermo Fisher Scientific, Waltham, MA) at 37° C. in 5% CO2. Cells were authenticated by human short tandem repeat profiling at the MSK Integrated Genomics Operation Core. Patient-derived human prostate cancer organoids were cultured as described. Gao et al., Cell 159:176-87 (2014).
as §4

MSK-PCa1 organoid = assay: MTT growth of mCRPC organoids with PARPi; conditions: compared to benign organoid; 3 days (FIG. 6E)
Excerpt: as §5, §6, §4

Q: How did the “sensitivity (cell growth, MTT)” value (22RV1 cells) turn out when Cn1ncnc1[C@H]1c2n[nH]c(=O)c3cc(F)cc(c23)N[C@@H]1c1ccc(F)cc1 [talazoparib] was run?
A: modest sensitivity

Q: And the “growth inhibition compared to olaparib (2.5 μM)” value (PC3M cells)?
A: more growth inhibition

Q: What about the “cell growth inhibition (MTT)” value (LNCaP-BRCA2-RB1 cells) of the same molecule?
A: more cell growth inhibition

Q: And the “inhibitory effect on cell growth (MTT)” value [1]?
A: could not be detected

Q: What about the “sensitivity (cell growth, MTT)” value (BRCA2-null LNCaP cells) of the same molecule?
A: more sensitivity

Q: And the “organoid growth (MTT)” value (MSK-PCa3 organoid)?
A: growth reduction

Q: And the “organoid growth (MTT)” value (MSK-PCa1 organoid)?
A: growth reduction
